Each block holds one compound with its values, some of them ahead of it.
Legend:
[1] = biological target: MAP kinase-interacting serine/threonine-protein kinase 1 (Homo sapiens) (UniProt Q9BUB5); test: Selectivity interaction (KinomeScan (DiscoverX)) EUB0000666a MKNK1; conditions: at 10 µM
[2] = biological target: T1, Mitogen-activated protein kinase kinase kinase kinase 2 (Homo sapiens) (UniProt Q12851); test: Selectivity interaction (Kinase panel (literature)) EUB0001199aCl MAP4K2; conditions: at 1 µM
T1 sequence (whole entry): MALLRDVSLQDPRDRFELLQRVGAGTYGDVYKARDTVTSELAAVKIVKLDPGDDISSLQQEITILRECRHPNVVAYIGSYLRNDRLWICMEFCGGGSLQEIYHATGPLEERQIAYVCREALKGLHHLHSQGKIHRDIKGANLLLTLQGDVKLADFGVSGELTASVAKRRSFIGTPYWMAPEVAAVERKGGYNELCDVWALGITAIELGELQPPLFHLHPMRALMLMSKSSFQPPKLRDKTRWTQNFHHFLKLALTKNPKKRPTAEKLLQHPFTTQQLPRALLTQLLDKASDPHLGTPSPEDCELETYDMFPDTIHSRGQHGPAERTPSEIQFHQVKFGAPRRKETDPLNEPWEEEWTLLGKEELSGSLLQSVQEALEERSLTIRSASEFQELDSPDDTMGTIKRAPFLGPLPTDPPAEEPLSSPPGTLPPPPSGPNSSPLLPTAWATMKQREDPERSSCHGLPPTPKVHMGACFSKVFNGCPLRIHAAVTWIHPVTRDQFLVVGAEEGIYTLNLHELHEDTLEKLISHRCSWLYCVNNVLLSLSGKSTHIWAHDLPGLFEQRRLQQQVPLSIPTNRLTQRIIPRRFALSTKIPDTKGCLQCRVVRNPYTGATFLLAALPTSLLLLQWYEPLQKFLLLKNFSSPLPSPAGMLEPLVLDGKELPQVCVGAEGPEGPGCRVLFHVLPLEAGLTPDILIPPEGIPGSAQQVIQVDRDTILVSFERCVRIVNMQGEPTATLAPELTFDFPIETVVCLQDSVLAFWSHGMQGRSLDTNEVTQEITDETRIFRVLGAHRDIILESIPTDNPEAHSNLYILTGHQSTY

[3] = biological target: Mitogen-activated protein kinase 7 (Homo sapiens) (UniProt Q13164); test: Selectivity interaction (KinomeScan (DiscoverX)) EUB0000699a MAPK7; conditions: at 10 µM
[4] = biological target: T2, Phosphatidylinositol 5-phosphate 4-kinase type-2 gamma (Homo sapiens) (UniProt Q8TBX8); test: Selectivity interaction (ActivX KiNativ screen (kinase selectivity in THP-1 cell lysates)) EUB0000639a PIP4K2C; assay type: subcellular; conditions: lysate, at 0.04 µM
T2 sequence (whole entry): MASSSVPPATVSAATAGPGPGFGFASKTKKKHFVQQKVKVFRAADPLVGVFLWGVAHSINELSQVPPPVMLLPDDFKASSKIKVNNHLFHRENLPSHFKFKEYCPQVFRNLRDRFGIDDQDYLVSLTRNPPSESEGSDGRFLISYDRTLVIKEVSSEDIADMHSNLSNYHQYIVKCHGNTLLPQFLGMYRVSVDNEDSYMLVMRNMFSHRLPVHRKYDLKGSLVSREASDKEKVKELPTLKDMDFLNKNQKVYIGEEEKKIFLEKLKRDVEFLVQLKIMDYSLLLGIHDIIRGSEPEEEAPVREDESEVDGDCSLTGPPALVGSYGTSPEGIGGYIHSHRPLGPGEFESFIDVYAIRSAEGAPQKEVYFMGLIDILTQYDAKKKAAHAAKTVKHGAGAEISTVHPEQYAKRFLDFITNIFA

[5] = biological target: Ribosomal protein S6 kinase alpha-2 (Homo sapiens) (UniProt Q15349); test: Selectivity interaction (ActivX KiNativ screen (kinase selectivity in THP-1 cell lysates)) EUB0000639a RPS6KA2; assay type: subcellular; conditions: lysate, at 0.2 µM
[6] = biological target: T3, Dual specificity mitogen-activated protein kinase kinase 6 (Homo sapiens) (UniProt P52564); test: Selectivity interaction (KinomeScan (DiscoverX)) EUB0000655a MAP2K6; conditions: at 10 µM
T3 sequence (whole entry): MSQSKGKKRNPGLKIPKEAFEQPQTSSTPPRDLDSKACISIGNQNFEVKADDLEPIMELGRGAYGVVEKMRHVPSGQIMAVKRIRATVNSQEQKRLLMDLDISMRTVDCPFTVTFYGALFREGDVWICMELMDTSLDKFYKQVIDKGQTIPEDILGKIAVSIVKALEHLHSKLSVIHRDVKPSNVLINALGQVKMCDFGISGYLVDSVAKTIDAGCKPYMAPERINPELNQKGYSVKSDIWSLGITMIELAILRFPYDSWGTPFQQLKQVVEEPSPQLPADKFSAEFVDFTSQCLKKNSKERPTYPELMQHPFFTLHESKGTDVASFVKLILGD

[7] = biological target: T4, Megakaryocyte-associated tyrosine-protein kinase (Homo sapiens) (UniProt P42679); test: Selectivity interaction (KinomeScan (DiscoverX)) EUB0000045b MATK
T4 sequence (whole entry): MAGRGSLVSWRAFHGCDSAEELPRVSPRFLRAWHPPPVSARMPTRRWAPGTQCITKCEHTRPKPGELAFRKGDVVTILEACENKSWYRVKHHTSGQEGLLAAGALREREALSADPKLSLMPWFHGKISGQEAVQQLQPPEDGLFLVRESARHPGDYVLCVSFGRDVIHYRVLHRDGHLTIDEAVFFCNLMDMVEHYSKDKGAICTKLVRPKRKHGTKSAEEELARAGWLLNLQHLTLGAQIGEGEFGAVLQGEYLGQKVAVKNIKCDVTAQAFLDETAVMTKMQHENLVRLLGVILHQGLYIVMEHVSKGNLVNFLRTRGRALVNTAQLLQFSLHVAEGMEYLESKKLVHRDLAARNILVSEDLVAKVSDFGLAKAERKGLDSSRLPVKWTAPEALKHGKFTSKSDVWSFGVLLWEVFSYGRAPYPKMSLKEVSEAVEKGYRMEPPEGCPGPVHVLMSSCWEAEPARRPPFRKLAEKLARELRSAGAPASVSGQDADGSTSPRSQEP

[8] = biological target: Mitogen-activated protein kinase 9 (Homo sapiens, UniProt P45984); test: Selectivity interaction (ActivX KiNativ screen (ex vivo kinase selectivity in human PBMCs)) EUB0001619a MAPK9; assay type: cell-based; conditions: PBMC, at 1 µM
[9] = biological target: Ribosomal protein S6 kinase alpha-1 (Homo sapiens, UniProt Q15418); test: Selectivity interaction (ActivX KiNativ screen (ex vivo kinase selectivity in human PBMCs)) EUB0001619a RPS6KA1; assay type: cell-based; conditions: PBMC, at 1 µM
Sequence of Ribosomal protein S6 kinase alpha-1 (Q15418 whole entry): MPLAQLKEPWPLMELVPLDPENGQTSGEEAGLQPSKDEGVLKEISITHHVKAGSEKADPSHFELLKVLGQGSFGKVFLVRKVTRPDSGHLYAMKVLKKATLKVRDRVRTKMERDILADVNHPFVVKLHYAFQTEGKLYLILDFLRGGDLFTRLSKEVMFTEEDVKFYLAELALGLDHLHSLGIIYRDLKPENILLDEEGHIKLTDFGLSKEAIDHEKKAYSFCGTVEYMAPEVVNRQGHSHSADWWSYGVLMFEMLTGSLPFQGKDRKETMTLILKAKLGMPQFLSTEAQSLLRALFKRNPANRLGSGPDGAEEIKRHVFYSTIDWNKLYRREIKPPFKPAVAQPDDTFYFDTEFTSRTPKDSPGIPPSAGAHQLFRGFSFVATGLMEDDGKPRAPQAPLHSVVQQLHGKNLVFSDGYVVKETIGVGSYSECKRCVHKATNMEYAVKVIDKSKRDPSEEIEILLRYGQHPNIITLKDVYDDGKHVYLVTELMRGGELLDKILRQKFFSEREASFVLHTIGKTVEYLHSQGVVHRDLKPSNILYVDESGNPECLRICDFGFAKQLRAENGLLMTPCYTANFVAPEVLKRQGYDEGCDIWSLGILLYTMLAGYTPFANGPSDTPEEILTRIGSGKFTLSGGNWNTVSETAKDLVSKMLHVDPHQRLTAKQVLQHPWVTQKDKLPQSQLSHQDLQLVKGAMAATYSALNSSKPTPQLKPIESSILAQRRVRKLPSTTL

Sequence of MAP kinase-interacting serine/threonine-protein kinase 1 (Homo sapiens) (Q9BUB5 whole entry, looked up): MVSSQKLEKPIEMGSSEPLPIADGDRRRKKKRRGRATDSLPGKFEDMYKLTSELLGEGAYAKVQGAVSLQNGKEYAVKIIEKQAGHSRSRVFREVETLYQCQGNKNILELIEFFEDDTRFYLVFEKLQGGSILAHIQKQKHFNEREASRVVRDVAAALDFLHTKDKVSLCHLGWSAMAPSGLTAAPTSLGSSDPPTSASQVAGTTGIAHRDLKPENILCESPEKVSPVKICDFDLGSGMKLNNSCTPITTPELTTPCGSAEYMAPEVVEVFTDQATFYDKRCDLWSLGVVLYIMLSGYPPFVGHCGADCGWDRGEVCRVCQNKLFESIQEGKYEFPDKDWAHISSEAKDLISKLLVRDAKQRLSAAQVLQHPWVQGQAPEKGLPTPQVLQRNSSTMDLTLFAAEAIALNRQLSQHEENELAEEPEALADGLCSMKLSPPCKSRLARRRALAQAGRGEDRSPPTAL
Sequence of Mitogen-activated protein kinase 9 (P45984 whole entry, looked up): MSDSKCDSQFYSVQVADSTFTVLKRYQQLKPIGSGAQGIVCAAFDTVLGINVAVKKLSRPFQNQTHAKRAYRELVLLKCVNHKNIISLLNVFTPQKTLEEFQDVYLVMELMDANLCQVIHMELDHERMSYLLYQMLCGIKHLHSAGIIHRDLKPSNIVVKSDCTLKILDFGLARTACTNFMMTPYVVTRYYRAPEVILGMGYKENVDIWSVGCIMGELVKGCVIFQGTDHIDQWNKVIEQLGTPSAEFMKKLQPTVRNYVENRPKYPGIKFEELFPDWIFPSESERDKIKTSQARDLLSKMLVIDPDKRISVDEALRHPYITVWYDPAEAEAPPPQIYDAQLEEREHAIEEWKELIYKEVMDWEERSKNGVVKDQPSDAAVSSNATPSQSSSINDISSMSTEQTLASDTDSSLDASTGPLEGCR
Sequence of Ribosomal protein S6 kinase alpha-2 (Homo sapiens) (Q15349 whole entry): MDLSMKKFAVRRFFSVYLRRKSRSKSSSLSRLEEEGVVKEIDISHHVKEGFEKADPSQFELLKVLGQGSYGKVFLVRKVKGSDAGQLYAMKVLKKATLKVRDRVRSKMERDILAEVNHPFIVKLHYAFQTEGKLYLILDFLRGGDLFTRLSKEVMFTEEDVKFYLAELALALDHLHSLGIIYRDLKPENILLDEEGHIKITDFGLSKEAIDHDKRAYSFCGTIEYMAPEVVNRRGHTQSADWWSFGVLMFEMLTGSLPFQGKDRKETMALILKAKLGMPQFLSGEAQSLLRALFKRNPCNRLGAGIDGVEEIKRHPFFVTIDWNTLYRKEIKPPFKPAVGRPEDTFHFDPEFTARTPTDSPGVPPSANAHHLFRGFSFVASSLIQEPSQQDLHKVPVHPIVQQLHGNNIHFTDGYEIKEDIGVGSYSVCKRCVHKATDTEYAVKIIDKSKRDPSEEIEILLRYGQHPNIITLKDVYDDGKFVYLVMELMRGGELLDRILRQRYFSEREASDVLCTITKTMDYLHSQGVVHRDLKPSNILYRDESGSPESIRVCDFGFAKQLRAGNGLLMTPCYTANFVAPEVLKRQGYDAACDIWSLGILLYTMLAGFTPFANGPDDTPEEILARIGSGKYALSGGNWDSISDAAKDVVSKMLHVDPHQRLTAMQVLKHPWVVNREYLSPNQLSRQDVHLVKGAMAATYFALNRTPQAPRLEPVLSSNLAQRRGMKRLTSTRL
Sequence of Mitogen-activated protein kinase 7 (Homo sapiens) (Q13164 2-816 limits assumed): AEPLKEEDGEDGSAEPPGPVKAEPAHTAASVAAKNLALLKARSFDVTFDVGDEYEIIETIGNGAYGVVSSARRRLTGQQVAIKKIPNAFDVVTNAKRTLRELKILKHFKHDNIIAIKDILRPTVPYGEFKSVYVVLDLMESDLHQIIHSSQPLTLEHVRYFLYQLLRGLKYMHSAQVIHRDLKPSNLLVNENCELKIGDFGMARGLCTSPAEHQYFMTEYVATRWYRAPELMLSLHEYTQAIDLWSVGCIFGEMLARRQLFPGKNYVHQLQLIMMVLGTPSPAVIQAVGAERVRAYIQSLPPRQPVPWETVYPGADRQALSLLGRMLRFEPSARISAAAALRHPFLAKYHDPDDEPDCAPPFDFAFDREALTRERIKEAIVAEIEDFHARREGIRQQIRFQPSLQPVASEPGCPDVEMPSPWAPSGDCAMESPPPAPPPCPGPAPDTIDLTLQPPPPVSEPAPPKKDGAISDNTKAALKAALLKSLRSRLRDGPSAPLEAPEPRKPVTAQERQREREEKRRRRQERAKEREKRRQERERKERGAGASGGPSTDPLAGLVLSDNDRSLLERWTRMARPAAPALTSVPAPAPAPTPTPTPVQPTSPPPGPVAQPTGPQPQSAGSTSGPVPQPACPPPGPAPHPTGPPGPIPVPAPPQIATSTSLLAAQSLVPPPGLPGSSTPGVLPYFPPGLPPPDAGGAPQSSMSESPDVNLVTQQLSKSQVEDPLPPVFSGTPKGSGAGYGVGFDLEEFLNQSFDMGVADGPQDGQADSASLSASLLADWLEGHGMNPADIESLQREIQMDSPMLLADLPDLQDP

SMILES: O=C(NOC[C@H](O)CO)c1ccc(F)c(F)c1Nc1ccc(I)cc1F
% of control [1]: 100%

% of inhibition [2]: 4%
SMILES: CN1Cc2nccc(-c3cn(C)nc3-c3ccc(F)cc3)c2C1=O

% of control [3]: 36%
SMILES: CCN(CC)CCCCNc1ncc2cc(-c3cc(OC)cc(OC)c3)c(NC(=O)NC(C)(C)C)nc2n1

% of inhibition [4]: 6.2%
% of inhibition [5]: 2.6%
SMILES: CC[C@@H]1[C@H](F)C(=O)N[C@@H]1COc1nccc2cc(C(N)=O)c(OC)cc12 [ZIMLOVISERTIB]

SMILES: CN(C)CCOc1ccc(-c2nc(-c3ccncc3)c(-c3ccc4c(c3)CC/C4=N\O)[nH]2)cc1
% of control [6]: 100%

SMILES: C=CC(=O)Nc1cc(-n2c(=O)ccc3cnc4ccc(-c5ccc(NS(C)(=O)=O)cc5)cc4c32)ccc1C
% of control ([7]; at 1 µM): 92%
% of control ([7]; at 10 µM): 95%

SMILES: N#Cc1cccc(-c2c[nH]c3ncnc(N4CCOCC4)c23)c1
% of inhibition [8]: 5%
% of inhibition [9]: 56%

Source: ChEMBL document CHEMBL5465560, “Selectivity Literature for EUbOPEN Chemogenomic Library” (2024)
